Reference: ChEMBL document CHEMBL3227964 (J Med Chem, 1979)
The source made the active and inactive calls. The rule behind the calls is not given here.

What was measured:
Escherichia coli [1] = test: Induction of sensitization to irradiation in Escherichia coli AB1157 under hypoxic condition assessed as reduction in colony formation at 1 mM measured after irradiation; assay type: functional, organism-based
Escherichia coli [2] = test: Induction of sensitization to irradiation in Escherichia coli AB1157 under oxic condition assessed as reduction in colony formation at 1 mM measured after irradiation; assay type: organism-based; conditions: in vivo, 1000 µM
Escherichia coli [3] = test: Antimicrobial activity against Escherichia coli AB1157 assessed as reduction in colony formation at 1 mM; assay type: organism-based; conditions: in vivo, 1000 µM

| SMILES | Activity (Escherichia coli [1]) | Activity (Escherichia coli [2]) | Activity (Escherichia coli [3]) |
| --- | --- | --- | --- |
| O=[N+]([O-])c1ncn(CCO)c1Cl | Active | Toxic | Non-toxic |
| O=[N+]([O-])c1cnc2n1CCO2 | Active | Toxic | Non-toxic |
| COCC(O)Cn1ccnc1[N+](=O)[O-] (configuration not stated) | Active | – | – |
